Reference: patent US20260335282A1, “NOVEL 3-ARYLIDENE-2-INDOLINONE DERIVATIVES FOR THERAPEUTIC USE” (ISTANBUL UNIVERSITESI REKTORLUGU, priority 2022, published 2026)
pIC50: −log10 of the molar value. Where two headings read alike, the source gives them in different places.

Legend:
Type in all cases: cell-based, human
[1] = tested on: MCF-10F/Beas2b cells; test: MTT cytotoxicity, healthy cells MCF-10F/Beas2b; conditions: for Selectivite Index, MCF-10F/Beas2b (Table 2): MCF-10F/Beas2b vs colon or pancreas cancer cells; for pIC50: MTT
Description: (§1) The cytotoxicity, general tyrosine kinase inhibitory effects and cell death (apoptosis/necrosis) assays of 1-benzyl-3-(1H-indol-3-ylmethylidene)-1,3-dihydro-2H-indol-2-one derivatives (Formula 5) of the present invention are studied by the following methods. […] HUVEC (human umbilical vein endothelial cell), MCF-10F (human breast epithelial cell) and Beas2b (human lung bronchial epithelial cell) cell lines have been used as healthy control cells in MTT experiments.
(§2) Beas2b (human lung bronchiole epithelial cell) and HEK293 (renal tubule epithelium) cells used as normal cell lines were cultured in RPMI medium, and HUVEC (human umbilical cord endothelial cells) and MCF-10F (human breast epithelial cell) cells are cultured in DMEM medium containing 100 µg/ml penicillin/streptomycin. The cells, which covered 70% of the culture flask, are washed with phosphate buffer and then removed from the surface of the flask by application of trypsin-ethylenediamine tetraacetic acid (Trypsin-EDTA; 0.25%) solution, passaged, counted and seeded on appropriate plates before each experiment. Cells are treated with a total of 45 2-indolinone compounds (5) at concentrations of 0.1, 1, 5 and 10 μM. Stock compounds are prepared in 1 ml dimethylsulfoxide (DMSO) and 4 different dilutions were prepared with medium and performed to the cells. Control group cells are treated with DMSO at a similar concentration to the experimental groups.
(§3) MTT (3-(4,5-dimethylthiazol-2-yl)-2,5-diphenyl-2H-tetrazolium bromide) colorimetric assay provides quantitation of viable cells with ongoing mitochondrial activity in culture medium. According to the standard procedure in cell culture conditions, cells are maintained in RPMI-1640 and DMEM culture media containing 10% FBS and 1% penicillin/streptomycin. The trypan blue test is used for cell counts.
(§4) The effects of 45 2-indolinone compounds (5) on cell viability in all cancer cell lines are investigated by MTT assay. Cells are seeded in a 96-well flat bottom plate with 5000 cells in each well and 2-indolinone compounds (5) at concentrations of 0.1, 1, 5 and 10 μM are performed to the cells the next day. After 48 and/or 72 hours following treatment with 2-indolinone compounds, 50 μl of the supernatant is slowly discarded (as it was acid medium) and MTT at a concentration of 5 mg/ml is added to each well in a volume of 10 μl. After incubation for 4 hours, the formazan crystals formed in the wells are dissolved by adding 100 μl DMSO and the optical density is read at 570 nm test wavelength and 630 nm reference wavelength. Cell viability is expressed as % cell viability by comparing the absorbance of control and test wells. IC50 value is calculated from the dose-response curves prepared for each compound. In addition, the possible DMSO effect is eliminated by preparing negative control wells compatible with the amount of DMSO contained in the compounds. To understand the reaction of the compounds with MTT, cell-free (MTT+compounds) negative controls are prepared at the concentrations used (Mosmann, 1983). […] The absorbance values obtained are compared to the control and statistically evaluated by unpaired t-test using “Graphpad Prism 5.04” software. “P<0.05” is accepted as significant. When evaluating cytotoxic effects, the present inventors aim for the inventive compounds to be effective in cancer cells and ineffective in healthy cells. The inventive compounds have also been compared with sunitinib, one of the reference chemotherapy drugs currently used in treatment.
(§5) Among the compounds of the present invention, those that killed cancer cells by at least 50% (p<0.05) are selected and tested whether a 10-fold concentration of the M concentration at the IC50 value is toxic to normal healthy cells.

[2] = tested on: MCF-7 cells; test: MTT cytotoxicity, breast cancer cells MCF-7; conditions: MTT
Description: as §1, §2, §3, §4, §5

[3] = tested on: A549 cells; test: MTT cytotoxicity, lung cancer cells A549; conditions: no * mark (incubation time not specified)
Description: as §1, §2, §3, §4, §5

[4] = tested on: CAKI-1 cells; test: MTT cytotoxicity, kidney cancer cells CAKI-1
Description: as §1, §2, §3, §4, §5

[5] = tested on: HCT-116 cells; test: MTT cytotoxicity, colon cancer cells HCT-116; conditions: no * mark (incubation time not specified)
Description: as §1, §2, §3, §4

[6] = tested on: HUVEC cells; test: MTT cytotoxicity, healthy cells HUVEC; conditions: for Selectivite Index, HUVEC (Table 2): HUVEC vs colon or pancreas cancer cells; for pIC50: MTT
Description: as §1, §2, §3, §4, §5

[7] = tested on: MDA-MB-231 cells; test: MTT cytotoxicity, breast cancer cells MDA-MB-231; conditions: read-out: IC50, MDA-MB-231 (breast), MTT
Description: as §1, §2, §3, §4, §5

[8] = tested on: MIAPaCa-2 cells; test: MTT cytotoxicity, pancreas cancer cells MIAPaCa-2; conditions: for pIC50: MTT
Description: as §1, §2, §3, §4

[9] = tested on: A498 cells; test: MTT cytotoxicity, kidney cancer cells A498; conditions: MTT
Description: as §1, §2, §3, §4, §5

[10] = tested on: general tyrosine kinase activity in MIA PaCa-2 pancreas cancer cells; test: General tyrosine kinase activity (ELISA) in MIAPaCa-2 cells; conditions: 72 hours, IC50 concentration
Method: Takara Universal Tyrosine Kinase Assay Kit is used to determine the effects of 11 2-indolinone compounds (Y1, Y2, Y3, Y4, Y5, Y8, […], […], Y21, Y23, 20C, 22C) on general tyrosine kinase activity in cancer cells. Cells are seeded in 6-well plates (4.10^5 cells/well) and the IC50 concentration of each selected molecule is performed to the cells for 48 or 72 hours. Cells in the control group are incubated with medium only. At the end of the incubation period, the cells in each well are washed with PBS and cells are removed from the wells using a cell scraper via 1 ml of the extraction buffer in the kit. The cell lysate is transferred to ependorf tubes and centrifuged at 10.000 g for 10 minutes at +4° C. and the supernatant is used as a sample for activity determination. After the extracts obtained from the control and experimental groups are diluted 1:25, 40 μl extracts is transferred to two wells in the 96-well plate in the kit. In addition, the standard solution in the kit is diluted according to the kit instructions and each concentration is transferred 40 μl into three wells. 10 μl of 40 mM ATP-2Na solution is added to all wells and the plate is incubated at 37° C. for 30 minutes. After incubation, all wells are washed 4 times with wash buffer. 100 μl of blocking solution is added to each well and incubated again at 37° C. for 30 minutes. After incubation, the liquid in the wells is discarded and 50 μl of anti-phosphotyrosine-HRP solution is added to each well and incubated at 37° C. for 30 minutes. The wells are washed again four times with wash buffer and 100 μl of HRP-substrate solution (TMBZ) is added to each well and incubated at 37° C. for 15 minutes. The reaction is finished by adding 100 μl of stop solution to each well and the optical density in each well is measured at 405 nm with a microplate reader (BioTek, USA). The tyrosine kinase activity in each sample is calculated from the standard curve obtained from the absorbance values of the standard solutions with the kit (Chan W Y, Lau P M, Yeung K W, Kong S K. The second generation tyrosine kinase inhibitor dasatinib induced eryptosis in human erythrocytes—An in vitro study. Toxicol Lett. 2018; 295:10-21). This activity is normalized compared to the control group by dividing by the amount of protein in each sample.
The effects of 11 2-indolinone compounds (Y1, Y2, Y3, Y4, Y5, Y8, Y14, Y21, Y23, 20C and 22C) having the structure of formula (5), which are prominent with their cytotoxicity in A498, MIAPaCa-2 and HCT-116 cancer cell lines and nontoxic properties in healthy cells, on general tyrosine kinase activity in cancer cells are determined.

[11] = tested on: HT-29 cells; test: MTT cytotoxicity, colon cancer cells HT-29; conditions: MTT, no * mark (incubation time not specified)
Description: as §1, §2, §3, §4

[12] = no * mark (incubation time not specified)
[13] = no * mark (incubation time not given)
[14] = *: effective 72 hours after incubation

Row | SMILES | pIC50 [2, 12] | pIC50 [3] | pIC50 [4, 12] | pIC50 [5] | pIC50 [6, 12] | pIC50 [7, 13] | pIC50 [8, 12] | pIC50 [9, 12] | pIC50 [11] | pIC50 [1, 12] | pIC50 [4, 14] | pIC50 [2, 14] | pIC50 [9, 14] | also measured
1 | Cc1ccc(CN2C(=O)/C(=C\c3c[nH]c4ccccc34)c3ccccc32)cc1 [Y21] | 5.06 | < 5.00 | < 5.00 | 5.50 | 5.61 | < 5.00 | 6.40 | 5.39 | < 5.00 |  |  |  |  | Selectivite Index, MCF-10F/Beas2b (Table 2) ([1]; cancer line not given): > 25.00; Selectivite Index, HUVEC (Table 2) ([6]; cancer line not given): 6.15; selectivity index ([8]; MCF-10F/Beas2b vs MIAPaCa-2): > 25; pIC50 [8]: 6.40; general tyrosine kinase activity compared to control [10]: significantly decreased
2 | Cc1ccc(CN2C(=O)/C(=C\c3c[nH]c4ccccc34)c3cc(Cl)ccc32)cc1 [Y22] | < 5.00 | < 5.00 | < 5.00 | 5.63 | 5.63 | < 5.00 | 6.31 | < 5.00 | < 5.00 | 5.96 |  |  |  | 
3 | O=C1/C(=C\c2c[nH]c3ccccc23)c2cccc(Cl)c2N1Cc1ccc(F)cc1 [24C] | 5.29 | 5.09 |  | 5.63 | 5.90 | 5.13 | 5.95 | 5.59 | 6.14 | 5.90 | 5.24 |  |  | 
4 | O=C1/C(=C\c2c[nH]c3ccccc23)c2cc(OC(F)(F)F)ccc2N1Cc1ccc(Cl)cc1 [5C] |  | 5.53 |  | 5.71 | 5.57 |  | < 5.00 |  | 6.36 | 5.46 | 5.16 | 5.42 | 5.65 | Selectivite Index, MCF-10F/Beas2b (Table 2) ([1]; cancer line not given): 7.86; Selectivite Index, HUVEC (Table 2) ([6]; cancer line not given): 6.18; pIC50 [7, 14]: 5.24
5 | O=C1/C(=C\c2c[nH]c3ccccc23)c2cc(Cl)ccc2N1Cc1ccc(Cl)cc1 [19C] | 5.50 | 5.26 | < 5.00 | < 5.00 | 5.73 | < 5.00 | < 5.00 | 6.29 | < 5.00 | 5.73 |  |  |  | 
6 | Cc1ccc(CN2C(=O)/C(=C\c3c[nH]c4ccccc34)c3cc(F)ccc32)cc1 [Y25] |  | 5.48 |  | 5.84 | 6.89 | 5.47 | 5.94 | 5.50 | < 5.00 | 5.57 | 5.15 | 5.32 |  | 
7 | Cc1ccc(CN2C(=O)/C(=C\c3c[nH]c4ccccc34)c3cccc(F)c32)cc1 [35C] | < 5.00 | 5.23 | 5.35 | 6.64 | 5.79 | < 5.00 | 6.21 |  | 6.00 | 5.49 |  |  | 5.51 | 
8 | O=C1/C(=C\c2c[nH]c3ccccc23)c2cc(F)ccc2N1Cc1ccc(Cl)cc1 [12C] |  | 5.77 | 5.55 | 6.19 | 6.26 |  | 6.31 |  | 5.97 | 5.61 |  | 5.58 | 6.20 | pIC50 [1, 14]: 5.61; pIC50 [7, 14]: 5.17
9 | Cc1cccc(CN2C(=O)/C(=C\c3c[nH]c4ccccc34)c3cc(F)ccc32)c1 [13C] | < 5.00 | 5.46 | < 5.00 | < 5.00 | 5.65 | < 5.00 |  | 5.58 | < 5.00 | 5.58 |  |  |  | pIC50 [8, 14]: 5.82
10 | Cc1ccc2c(c1)/C(=C/c1c[nH]c3ccccc13)C(=O)N2Cc1ccc(Cl)cc1 [47C] | 5.30 | 5.58 | 5.33 | < 5.00 | < 5.00 | < 5.00 | < 5.00 |  | < 5.00 |  |  |  | 6.05 | Selectivite Index (SI), MCF-10F/Beas2b (Table 1) ([1]; MCF-10F/Beas2b vs breast or kidney cancer cells, cancer line not given): 2.88; pIC50 [1, 14]: 5.59; Selectivite Index (SI), HUVEC (Table 1) ([6]; HUVEC vs breast or kidney cancer cells, cancer line not given): > 11.11
11 | O=C1/C(=C\c2c[nH]c3ccccc23)c2cccc(F)c2N1Cc1cccc(F)c1 [30C] | 5.37 | 5.17 |  | 5.69 |  | 5.38 | 5.72 | 5.18 | < 5.00 | 5.72 | 5.11 |  |  | pIC50 [6, 14]: 6.03
12 | O=C1C(=Cc2c[nH]c3ccccc23)c2cc(Cl)ccc2N1Cc1cccc(Cl)c1 [18C] | 5.26 | 5.18 | 5.46 | 5.40 | 5.97 | 5.10 |  | 5.76 | 5.51 | 5.97 |  |  |  | pIC50 [8, 14]: 5.81
13 | O=C1/C(=C\c2c[nH]c3ccccc23)c2cc(OC(F)(F)F)ccc2N1Cc1cccc(Cl)c1 [4C] |  | 5.62 |  | 5.95 | 6.01 |  |  | 5.52 | < 5.00 | 5.76 | 5.55 | 5.51 |  | pIC50 [7, 14]: 5.51; pIC50 [8, 14]: 5.44
